Laboratory results published in publication PMC6826779, “Bis-allylic Deuterated DHA Alleviates Oxidative Stress in Retinal Epithelial Cells” (Antioxidants, 2019).
Read-outs that look alike come from different tables or passages of the source.

Experiments:
[1] = system: ARPE-19 cells; experiment: cells; format: cell-based; conditions: for concentration range providing improvement in cell viability / concentration at which high toxicity was observed (microscopy, loss of cell adherence): 24 h; for concentration range providing improvement in cell viability: compared to untreated cells (CTL); for concentration at which high toxicity was observed (microscopy, loss of cell adherence): ARPE-19, serum starvation medium (1% FBSM); for cell mortality: ARPE-19, serum starvation, 50 µM; for IC50: Homo sapiens, MTT, read-out: IC50 (concentration leading to 50% of cell viability)
Procedure: ARPE-19 cells were obtained from ATCC, and maintained in Dulbecco’s Modified Eagle’s Medium (DMEM)/Ham F12 (GIBCO) containing 10% (v/v) fetal bovine serum (FBS) and 1% (v/v) penicillin/streptomycin under a humidified (95%)/CO2 (5%) atmosphere at 37 °C. For splitting and experiments, cells were dissociated with 0.25% trypsin-EDTA, re-suspended in the culture medium and then plated at 1–3 × 10^5 cells/mL. Cells were cultured and used up to a maximum of 10 passages.
Cell viability was determined by the MTT colorimetric assay. Cells were incubated for 2 h with MTT reagent (0.5 mg/mL). The absorbance at 570 nm and 655 nm of individual wells was measured using a microplate reader (BioRad 550). The percentage of viable cells was calculated as [(OD570 sample – OD655 sample)/(OD570 control – OD655 control)] × 100%.
ARPE-19 cells were plated into 96-well plates (3 × 10^4 cells/well) and cultured for 24 h to reach confluence before DHA treatment. The cells were treated in medium with 1% FBS (1% FBSM), or with H2O2 prepared in medium with FBS (1%, v/v) to a final concentration of 600 μM. Cells were then treated with DHA, D2-DHA and D4-DHA, at different concentrations (0–80 μm) for 24 h. Control cells were incubated with DMSO (0.2%). After 4 h, cell viability was determined in triplicate using the MTT colorimetric assay. Results were expressed in percentage of viable cells normalized with control conditions in the absence of PUFA and H2O2 stress.
Sigmoidal doses-responses linked to the toxicity were obtained using GraphPad prism software, allowing to calculate IC50 values described as the concentration leading to 50% of cell viability.

[2] = system: ARPE-19 cells; experiment: Lipid peroxidation status with C11-Bodipy581/591 probe (FACS) under oxidative conditions; format: cell-based; conditions: ARPE-19, 50 µM for 24 h
Procedure: ARPE-19 cells were plated into 2 cm^2 wells (2 × 10^5 cells/well) and cultured for 24 h to reach confluence before PUFA or lipophenol treatment. The cell cultures were treated with 1% FBSM containing tested compounds (deuterated DHAs or deuterated lipophenols) at 50 μM for 24 h and then rinsed with media before the incubation of 5 µM C11-Bodipy^581/591 for 30 min. Then, the cells were rinsed and treated with the different stressors, corresponding to different protocols. For chemical stress the cells were incubated with 400 µM of H2O2 during 24 h followed by FACS analysis. For photobleaching stress, the cells were exposed to a white LED lamp with an intensity of 5000 lux at room temperature during 1 h followed by the FACS analysis.
FACS was performed with the BD Accuri C6 Flow Cytometer and BD Accuri C6 Software for data acquisition (BD Biosciences). This flow cytometer is equipped with an excitation laser at 488 nm, and a fluorescence detector FL1 533/30 nm. Data were collected to 10,000 events for each sample using a flow rate of 35 µL/min. Parameters obtained for data analysis included: cell size from the forward scatter (FSC), granularity from the side scatter (SSC) and the green fluorescence of the stained cells with C11-Bodipy^581/591.
First the SSC-A versus FSC-A dot-plot was used to gate the cellular population and remove the cellular debris. Then the SSC-A versus SSC-H dot-plot was used to remove cell doublets in the previous gate to give a final gate. The cellular population in the last gate designed was plotted on count versus log green fluorescence to give the fluorescence mean intensity of FL1. The mean FL1 values were normalized to the cells only stained with C11-Bodipy^581/591.

[3] = ARPE-19, 24 h incubation, H2O2 (600 µM) 4 h
[4] = ARPE-19, serum starvation (1% FBSM), 24 h incubation
[5] = serum starvation (1% FBSM) 24 h
[6] = serum starvation (1% FBSM) 48 h

## [2H]C([2H])(/C=C\C/C=C\C/C=C\C/C=C\C/C=C\CC)/C=C\CCC(=O)O [D2-DHA, (6,6-D2)-DHA]
[1]; ARPE-19, 1% FBSM
  concentration range providing improvement in cell viability: 0 to 65 µM
[1]
  concentration at which high toxicity was observed (microscopy, loss of cell adherence): 65 to 70 µM
  cell mortality: did not induced cell mortality
[1]; [3]
  IC50: 67 ± 1.89 µM
[1]; [4]
  IC50: 69.5 ± 1.46 µM
[2]; [5]
  lipid peroxidation status (C11-BODIPY fluorescence): decreased lipid peroxidation status with the same efficiency, reaching oxidation levels of untreated cells

## [2H]C([2H])(C=CCC=CCC=CCC=CCC)C=CC([2H])([2H])C=CCCC(=O)O [D4-DHA, (6,6,9,9-D4)-DHA]
[1]; ARPE-19, 1% FBSM, 70 µM
  cell survival: 125%
[1]; ARPE-19, 1% FBSM
  concentration range providing improvement in cell viability: 0 to 70 µM
[1]
  concentration at which high toxicity was observed (microscopy, loss of cell adherence): 70 to 75 µM
  cell mortality: did not induced cell mortality
[1]; [3]
  IC50: 76.2 ± 2.26 µM
[1]; [4]
  IC50: 75.6 ± 1.05 µM
[2]; [5]
  lipid peroxidation status (C11-BODIPY fluorescence): decreased lipid peroxidation status with the same efficiency, reaching oxidation levels of untreated cells
[2]; [6]
  lipid peroxidation status (C11-BODIPY fluorescence): reach radical levels close to untreated cells
[2]; then H2O2 400 µM 24 h
  lipid peroxidation status (C11-BODIPY fluorescence): more effective than D2-DHA

## CC/C=C\C/C=C\C/C=C\C/C=C\C/C=C\C/C=C\CCC(=O)O [Natural DHA, docosahexaenoic acid, reference compound]
[1]; ARPE-19, 1% FBSM
  concentration range providing improvement in cell viability: 0 to 60 µM
[1]
  concentration at which high toxicity was observed (microscopy, loss of cell adherence): 60 to 65 µM
  cell mortality: did not induced cell mortality
[1]; [3]
  IC50: 65.5 ± 1.87 µM
[1]; [4]
  IC50: 65.2 ± 1.03 µM
[2]; [6]
  lipid peroxidation status (C11-BODIPY fluorescence): increase in lipid peroxidation status compared to untreated cells
[2]; then H2O2 400 µM 24 h
  lipid peroxidation status (C11-BODIPY fluorescence): increase of oxidation
[2]; then photobleaching (white light, 5000 lux, 1 h)
  lipid peroxidation status (C11-BODIPY fluorescence): increase in lipid peroxidation under photobleaching-stress
